Experiments:
[1] = test system: UCP2; details: J. Biol. Chem. 276, 10853-10860 (2001); cited from earlier work
[2] = test system: human white adipocytes; assay: Free fatty acid β-oxidation in human white adipocytes ([9,10(n)-3H]palmitic acid, 3H2O release); type: cell-based; details: 10 μM, 48 hr, vs DMSO control
Experimental: After human fully differentiated white adipocytes had been prepared in the same manner as in Example 1, the supernatant was removed, and 500 μl of a medium which had been prepared by adding adequate amounts of oleic acid and palmitic acid to an adipocyte medium so that their concentrations were 0.67 mM and 0.33 mM, respectively, was added. Various kinds of test compounds were added to the medium in such a manner that their final concentrations were 10 μM, and subsequently, [9,10(n)-3H]palmitic acid (manufactured by Amersham Pharmacia, final concentration of 1 μCi/ml) was added to each well, and the cells were cultured at 37° C. for 48 hr. The test compounds were YM-16638 of a PPAR δ ligand, WY14643 of a PPAR α ligand, L755,507 of a β3 adrenergic receptor agonist and Rosiglitazone of a PPAR γ ligand. A control was prepared by adding DMSO, which was the solvent for the test compounds, in such a manner that the final concentration was 0.5%, and it was cultured in the same manner as the test compounds. In order to prevent the evaporation of ^3H2O produced by β-oxidation of the [9,10(n)-^3H]palmitic acid by the cells during culture, the culture plates were sealed with mini-culture filters (MS-30055) manufactured by Sumitomo Bakelite Co. Ltd.
After 48-hour culture, 200 μl of the supernatant of the medium was transferred to a 1.5-ml Eppendorf tube, 50 μl of 50% trichloroacetic acid was added, the tube was held on ice for 30 min to produce precipitates, and the mixture was centrifuged for 10 min at 15,000 rpm. Subsequently, in a 20-ml glass vial into which 500 μl of distilled water had been placed in advance, a cap-free 1.5-ml Eppendorf tube was placed, the total amount of the supernatant obtained above was placed into this Eppendorf tube, and the vial was tightly sealed with a polypropylene packing-attached lid. […] Into the ^3H2O-containing distilled water remaining in the vial, 5 ml of a liquid scintillation cocktail (Ultima Gold, manufactured by Packard) was added, and radioactivity was measured after sufficient mixing.

[3] = test system: UCP1; assay: UCP1 expression-enhancing effect in skeletal muscle cells or adipocytes; type: cell-based

Structure (SMILES) | expression of UCP2 [1] | enhancement of β-oxidation in the cells [2] | UCP1 expression-enhancing effect [3]
CCCCC/C=C\C/C=C\C/C=C\C/C=C\CCCC(=O)O [arachidonic acid] | increase the expression of UCP2 |  | 
CCCc1c(OCCCOc2ccc(OCC(=O)O)cc2)ccc(C(C)=O)c1O [L-165041, 4-(3-(2-propyl-3-hydroxy-4-acetyl-phenoxy)propyloxy)-phenoxyacetic acid] | increase the expression of UCP2 |  | 
CCCCCCNC(=O)Nc1ccc(S(=O)(=O)Nc2ccc(CCNC[C@H](O)COc3ccc(O)cc3)cc2)cc1 [L755,507] |  | no enhancement | 
CC#CCC(C)[C@H](O)/C=C/[C@@H]1[C@H]2C/C(=C/CCCC(=O)O)C[C@H]2C[C@H]1O (stereo partly drawn) [Iloprost, 5-{(E)-(1S,5S,6R,7R)-7-hydroxy-6-[(E)-(3S,4RS)-3-hydroxy-4-methyl-5-octen-6-inyl]-bicyclo[3.3.0]-octan-3-ylidene} pentenoic acid] |  |  | had a UCP1 expression-enhancing effect
CN(CCOc1ccc(CC2SC(=O)NC2=O)cc1)c1ccccn1 (stereo not drawn) [Rosiglitazone] |  | 15% | 
Cc1cccc(Nc2cc(Cl)nc(SCC(=O)O)n2)c1C [WY14643] |  | no enhancement | hardly exhibit a UCP1 expression enhancing effect
CCCCC[C@H](O)/C=C/[C@@H]1[C@H]2C/C(=C/CCCC(=O)O)C[C@H]2C[C@H]1O [carbaprostacyclin, 6,9 α-methylene-11 α, 15S-dihydroxy-prosta-5E, 13E-dien-1-oic acid] | increase the expression of UCP2 |  | had a UCP1 expression-enhancing effect

Source: US20080287544A1, “Method for Screening Substance by Measuring PPAR DELTA Activating Effect and Agent” (Teijin Limited, priority 2001, published 2008)
